Measurements reported in US12509454B2, “Thiadiazolyl derivatives” (IDEAYA Biosciences, Inc., priority 2019, dated 2025).

Target: Pol theta (1-899) (Homo sapiens (Human), UniProt O75417)
Assay: Pol theta ATPase activity, NADH oxidation-coupled enzymatic assay
Type: biochemical
Settings: Pol theta (1-899) 10 nM, ATP, dT50 ssDNA, absorbance 340 nm, 10-point dilution series; read-out: ATPase NADH coupling:Standard Screening:hPolQ IC50
Description: The ability of the compounds of Formula (I) to inhibit ATPase activity of Pol theta (1-899) was determined using the assay described below.
Pol Theta ATPase activity was determined by measuring the rate of ATP turn over in a NADH oxidation-coupled enzymatic assay. 10-point dilution series of compounds were used in a 384 well format for the inhibition assays. Pol theta (1-899) (10 nM) in assay buffer (20 mM Tris HCl (pH 7.80), 80 mM KCl, 10 mM MgCl2, 1 mM DTT, 0.01% BSA, 0.01% Tween, 5% glycerol) was transferred to the test wells (20 μL), except the low control wells (20 μL of assay buffer was added to the low control wells). The plate was then incubated at room temperature for 15 min. An equal volume (20 μL) of 100 μM ATP, 300 nM dT50 (single-stranded DNA (ssDNA) containing 50 thymine bases), 300 μM NADH, 6 mM PEP, 10 U/mL lactate dehydrogenase and 20 U/mL pyruvate kinase in assay buffer was added to all the test wells. The plate was then centrifuged at 1000 rpm for 1 min. The reaction was monitored for 30 min by measuring absorbance (λ=340 nm) in a Tecan Spark multimode plate reader every minute. The high control (DMSO with enzyme) with low absorbance intensity represents no inhibition of ATPase reaction while the low control (DMSO with buffer) with high absorbance intensity represents full inhibition of ATPase activity. Slope of the reaction progress curves were used to calculate the rate of ATP hydrolysis. The rates were used to determine the percent inhibition using a four-parameter inhibition model to generate IC50, Hill slope and max inhibition.

Chain of Pol theta (1-899) (O75417 1-899): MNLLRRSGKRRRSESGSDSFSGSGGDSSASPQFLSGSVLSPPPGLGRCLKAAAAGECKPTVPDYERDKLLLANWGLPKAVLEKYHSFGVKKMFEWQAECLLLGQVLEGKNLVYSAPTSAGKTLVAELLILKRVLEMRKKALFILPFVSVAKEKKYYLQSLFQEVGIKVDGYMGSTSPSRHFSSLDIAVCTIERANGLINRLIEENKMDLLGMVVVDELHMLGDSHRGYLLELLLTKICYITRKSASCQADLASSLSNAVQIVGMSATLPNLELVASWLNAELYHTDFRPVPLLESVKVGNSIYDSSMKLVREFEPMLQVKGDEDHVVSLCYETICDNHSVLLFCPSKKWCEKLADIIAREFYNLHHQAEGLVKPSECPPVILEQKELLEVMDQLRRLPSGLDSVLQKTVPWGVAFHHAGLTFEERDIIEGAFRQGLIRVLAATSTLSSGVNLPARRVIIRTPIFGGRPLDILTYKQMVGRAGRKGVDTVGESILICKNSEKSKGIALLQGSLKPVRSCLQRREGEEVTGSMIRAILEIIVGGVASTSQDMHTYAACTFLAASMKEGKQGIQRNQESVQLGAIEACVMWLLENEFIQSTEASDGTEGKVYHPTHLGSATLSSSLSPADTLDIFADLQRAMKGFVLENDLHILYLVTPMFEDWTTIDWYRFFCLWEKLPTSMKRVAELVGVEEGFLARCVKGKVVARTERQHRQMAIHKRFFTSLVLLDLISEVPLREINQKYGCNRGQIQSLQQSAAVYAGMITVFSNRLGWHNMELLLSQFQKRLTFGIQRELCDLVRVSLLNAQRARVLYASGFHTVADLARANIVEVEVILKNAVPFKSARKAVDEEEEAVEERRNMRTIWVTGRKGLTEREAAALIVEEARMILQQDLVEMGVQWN

An IC50 of 0.5 to 1 µM was found for `C[C@H]1COCCN1c1ncccc1C(=O)Nc1nnc(OCc2ccc(Cl)cc2)s1` [Example 10, (S)—N-(5-((4-chlorobenzyl)oxy)-1,3,4-thiadiazol-2-yl)-2-(3-methyl-morpholino)nicotinamide] in this work.

An IC50 of 1 to 10 µM was found for `C[C@@H]1COCCN1c1ncccc1C(=O)Nc1nnc(OCc2ccc(Cl)cn2)s1` [Example 22, (R)—N-(5-((5-chloropyridin-2-yl)methoxy)-1,3,4-thiadiazol-2-yl)-2-(3-methylmorpholino)nicotinamide] in this work.

An IC50 of 0.2 to 0.5 µM was found for `O=C(Nc1nnc(OCc2ccc(Cl)cc2)s1)c1ccncc1N1CCOCC1` [Example 59, N-(5-((4-chlorobenzyl)oxy)-1,3,4-thiadiazol-2-yl)-3-morpholinoisonicotinamide] in this work.

An IC50 of no more than 0.2 µM was found for `N#Cc1cc(-c2c(F)cccc2OC(F)F)c(C(=O)Nc2nnc(OCc3ccc(Cl)cc3)s2)cn1` [Example 192, N-(5-((4-chlorobenzyl)oxy)-1,3,4-thiadiazol-2-yl)-6-cyano-4-(2-(difluoromethoxy)-6-fluorophenyl)nicotinamide] in this work.

An IC50 of no more than 0.2 µM was found for `COc1ccccc1-c1cc(C)ncc1C(=O)Nc1nnc(OCc2ncccc2F)s1` [Example 210, N-[5-[(3-fluoropyridin-2-yl)methoxy]-1,3,4-thiadiazol-2-yl]-4-(2-methoxyphenyl)-6-methylpyridine-3-carboxamide] in this work.

An IC50 of 1 to 10 µM was found for `O=C(Nc1nnc(OCc2ccc(Cl)cn2)s1)c1cccnc1-c1ccccc1Cl` [Example 51, 2-(2-chlorophenyl)-N-[5-[(5-chloropyridin-2-yl)methoxy]-1,3,4-thiadiazol-2-yl]pyridine-3-carboxamide] in this work.

An IC50 of no more than 0.2 µM was found for `COc1ccccc1-c1cnc(F)cc1C(=O)Nc1nnc(OCc2ccc(Cl)cc2)s1` [Example 148, N-(5-((4-chlorobenzyl)oxy)-1,3,4-thiadiazol-2-yl)-2-fluoro-5-(2-methoxyphenyl)isonicotinamide] in this work.

An IC50 of 0.5 to 1 µM was found for `O=C(Nc1nnc(OCc2ccc(Cl)cc2)s1)c1cnccc1N1CCN(CCN2CCOCC2)C(=O)C1` [Example 83, N-[5-[(4-chlorophenyl)methoxy]-1,3,4-thiadiazol-2-yl]-4-[4-[2-(morpholin-4-yl)ethyl]-3-oxopiperazin-1-yl]pyridine-3-carboxamide] in this work.

An IC50 of 1 to 10 µM was found for `O=C(Nc1nnc(OCc2ccc(Cl)cc2)s1)c1cccnc1-c1ccccc1` [Example 94, N-(5-((4-chlorobenzyl)oxy)-1,3,4-thiadiazol-2-yl)-2-phenylnicotinamide] in this work.

An IC50 of no more than 0.2 µM was found for `O=C(Nc1nnc(OCc2ccc(Cl)cc2)s1)c1ccncc1-c1c(F)cccc1OC(F)F` [Example 109, N-(5-((4-chlorobenzyl)oxy)-1,3,4-thiadiazol-2-yl)-3-(2-(difluoromethoxy)-6-fluorophenyl)isonicotinamide] in this work.

An IC50 of 1 to 10 µM was found for `CC(=O)N1CCN(c2ncccc2C(=O)Nc2nnc(OCc3ccc(Cl)cc3)s2)CC1` [Example 16, 2-(4-acetylpiperazin-1-yl)-N-(5-((4-chlorobenzyl)oxy)-1,3,4-thiadiazol-2-yl)nicotinamide] in this work.

An IC50 of no more than 0.2 µM was found for `COc1ccccc1-c1cnccc1C(=O)Nc1nnc(OCc2ccc(Cl)cn2)s1` [Example 99, N-[5-[(5-chloropyridin-2-yl)methoxy]-1,3,4-thiadiazol-2-yl]-3-(2-methoxyphenyl)pyridine-4-carboxamide] in this work.

An IC50 of 1 to 10 µM was found for `CN(C)C(=O)N1CCN(c2ncccc2C(=O)Nc2nnc(OCc3ccc(Cl)cc3)s2)CC1` [Example 28, 4-(3-((5-((4-chlorobenzyl)oxy)-1,3,4-thiadiazol-2-yl)carbamoyl)pyridin-2-yl)-N,N-dimethylpiperazine-1-carboxamide] in this work.

An IC50 of 0.2 to 0.5 µM was found for `O=C(Nc1nnc(OCc2ccc(Cl)cn2)s1)c1cncn1-c1ccccc1Cl` [Example 26, 3-(2-chlorophenyl)-N-[5-[(5-chloropyridin-2-yl)methoxy]-1,3,4-thiadiazol-2-yl]imidazole-4-carboxamide] in this work.

An IC50 of no more than 0.2 µM was found for `COc1ccc(C#N)cc1-c1cc(C)ncc1C(=O)Nc1nnc(OCc2ccc(Cl)cn2)s1` [Example 117, N-[5-[(5-chloropyridin-2-yl)methoxy]-1,3,4-thiadiazol-2-yl]-4-(5-cyano-2-methoxyphenyl)-6-methylpyridine-3-carboxamide] in this work.

An IC50 of no more than 0.2 µM was found for `Cc1n[nH]cc1-c1cnccc1C(=O)Nc1nnc(OCc2ccc(Cl)cc2)s1` [Example 162, N-(5-((4-chlorobenzyl)oxy)-1,3,4-thiadiazol-2-yl)-3-(3-methyl-1H-pyrazol-4-yl)isonicotinamide] in this work.

An IC50 of no more than 0.2 µM was found for `Cc1cc(-c2c(F)cccc2OC(F)F)c(C(=O)Nc2nnc(OCc3ccc(Cl)cc3)s2)cn1` [Example 189, N-(5-((4-chlorobenzyl)oxy)-1,3,4-thiadiazol-2-yl)-4-(2-(difluoromethoxy)-6-fluorophenyl)-6-methylnicotinamide] in this work.

An IC50 of no more than 0.2 µM was found for `O=C(Nc1nnc(OCc2ccc(Cl)cc2)s1)c1cccnc1N1CCOC2(CC2)C1` [Example 30, N-(5-((4-chlorobenzyl)oxy)-1,3,4-thiadiazol-2-yl)-2-(4-oxa-7-azaspiro[2.5]octan-7-yl)nicotinamide] in this work.

An IC50 of no more than 0.2 µM was found for `COc1ccccc1-c1cnccc1C(=O)Nc1nnc(OCc2cccc(Cl)c2)s1` [Example 157, N-(5-((3-chlorobenzyl)oxy)-1,3,4-thiadiazol-2-yl)-3-(2-methoxyphenyl)isonicotinamide] in this work.

An IC50 of 1 to 10 µM was found for `COc1ccccc1-c1cc(C(C)(C)O)ncc1C(=O)Nc1nnc(OCc2ccc(Cl)cn2)s1` [Example 207, N-(5-((5-chloropyridin-2-yl)methoxy)-1,3,4-thiadiazol-2-yl)-6-(2-hydroxypropan-2-yl)-4-(2-methoxyphenyl)nicotinamide] in this work.

An IC50 of 0.5 to 1 µM was found for `COc1ccncc1-c1cnccc1C(=O)Nc1nnc(OCc2ccc(Cl)cc2)s1` [Example 133, N-(5-((4-chlorobenzyl)oxy)-1,3,4-thiadiazol-2-yl)-4′-methoxy-[3,3′-bipyridine]-4-carboxamide] in this work.

An IC50 of 0.5 to 1 µM was found for `O=C(Nc1nnc(OCc2ccc(Cl)cc2)s1)c1cccnc1N1CCOCC1` [Example 2, N-(5-((4-chlorobenzyl)oxy)-1,3,4-thiadiazol-2-yl)-2-morpholinonicotinamide] in this work.

An IC50 of 0.2 to 0.5 µM was found for `Cn1cc(-c2ncccc2C(=O)Nc2nnc(OCc3ccc(Cl)cc3)s2)ccc1=O` [Example 80, N-(5-((4-chlorobenzyl)oxy)-1,3,4-thiadiazol-2-yl)-1′-methyl-6′-oxo-1′,6′-dihydro-[2,3′-bipyridine]-3-carboxamide] in this work.

An IC50 of no more than 0.2 µM was found for `O=C(Nc1nnc(OCc2ccc(Cl)cc2)s1)c1cnccc1-c1ccccc1C(F)(F)F` [Example 132, N-(5-((4-chlorobenzyl)oxy)-1,3,4-thiadiazol-2-yl)-4-(2-(trifluoromethyl)phenyl)nicotinamide] in this work.

An IC50 of 1 to 10 µM was found for `COc1ccccc1-c1ncccc1C(=O)Nc1nnc(OCc2ccc(Cl)cc2)s1` [Example 67, N-(5-((4-chlorobenzyl)oxy)-1,3,4-thiadiazol-2-yl)-2-(2-methoxyphenyl)nicotinamide] in this work.

An IC50 of 1 to 10 µM was found for `CS(=O)(=O)N1CCN(c2ncccc2C(=O)Nc2nnc(OCc3ccc(Cl)cn3)s2)CC1` [Example 23, N-(5-((5-chloropyridin-2-yl)methoxy)-1,3,4-thiadiazol-2-yl)-2-(4-(methylsulfonyl)piperazin-1-yl)nicotinamide] in this work.

An IC50 of no more than 0.2 µM was found for `COc1ccccc1-c1ccncc1C(=O)Nc1nnc(OCc2ccc(Br)cc2)s1` [Example 153, N-[5-[(4-bromophenyl)methoxy]-1,3,4-thiadiazol-2-yl]-4-(2-methoxyphenyl)pyridine-3-carboxamide] in this work.

An IC50 of no more than 0.2 µM was found for `COc1cccc(F)c1-c1cc(C)ncc1C(=O)Nc1nnc(OCc2ccc(Cl)cn2)s1` [Example 184, N-(5-((5-chloropyridin-2-yl)methoxy)-1,3,4-thiadiazol-2-yl)-4-(2-fluoro-6-methoxyphenyl)-6-methylnicotinamide] in this work.

An IC50 of no more than 0.2 µM was found for `COc1ccccc1-c1ccncc1C(=O)Nc1nnc(OCc2ccc(Cl)cn2)s1` [Example 89, N-(5-((5-chloropyridin-2-yl)methoxy)-1,3,4-thiadiazol-2-yl)-4-(2-methoxyphenyl)nicotinamide] in this work.

An IC50 of 0.2 to 0.5 µM was found for `N#Cc1ccccc1-n1cncc1C(=O)Nc1nnc(OCc2ccc(Cl)cc2)s1` [Example 43, N-(5-((4-chlorobenzyl)oxy)-1,3,4-thiadiazol-2-yl)-1-(2-cyanophenyl)-1H-imidazole-5-carboxamide] in this work.

An IC50 of 0.2 to 0.5 µM was found for `NC(=O)c1cc(N2CCOCC2)c(C(=O)Nc2nnc(OCc3ccc(Cl)cc3)s2)cn1` [Example 48, N^5-(5-((4-chlorobenzyl)oxy)-1,3,4-thiadiazol-2-yl)-4-morpholinopyridine-2,5-dicarboxamide] in this work.

An IC50 of 0.5 to 1 µM was found for `O=C(Nc1nnc(OCc2ccc(Cl)cc2)s1)c1cccnc1N1CCN2C(=O)CC[C@@H]2C1` (single isomer, unassigned) [Example 70, (R)—N-(5-((4-chlorobenzyl)oxy)-1,3,4-thiadiazol-2-yl)-2-(6-oxohexahydropyrrolo-[1,2-a]pyrazin-2(1H)-yl)nicotinamide or (S)—N-(5-((4-chlorobenzyl)oxy)-1,3,4-thiadiazol-2-yl)-2-(6-oxohexahydropyrrolo[1,2-a]pyrazin-2(1H)-yl)nicotinamide] in this work.
